Laboratory results from paper PMC9597002, “The Combination of Individual Herb of Mi-Jian-Chang-Pu Formula Exerts a Synergistic Effect in the Treatment of Ischemic Stroke in Rats” (Oxidative Medicine and Cellular Longevity, 2022).

Legend:
MCAO rats [1] = experiment: Brain histopathology by HE staining; details: oral once daily 14 days
Procedure: (§1) 0.5% CMC-Na was used as vehicle with an equal volume (100 g/ml body-weight) for each rat. Treatments were administered once daily by oral gavage for 14 consecutive days. After the last administration, rats were fasted for 12 h, MCAO surgery was performed according to the reference by H Nagasawa and K Kogure. […] After 2 h of sustained MCAO, reperfusion was conducted, and the rats in sham operation group received the same surgical procedures except that the occluding monofilament was not inserted.
For brain histology, the tissue was fixed in 4% paraformaldehyde for 24 h, then the brain slices were rinsed, dehydrate, paraffin embedded, sectioned, and stained with hematoxylin-eosin (HE). The histopathological changes were observed under optical microscope.

MCAO rats [2] = experiment: Neurological deficit score (Longa's five-point scale) 24 h after reperfusion; details: oral once daily 14 days, compared with model group
Procedure: as §1
24 h after reperfusion, all rats were tested for sensorimotor ability according to the Longa's five-point scale (0, no neurologic deficit; 1, a slight forelimb flexion; 2 severe forelimb flexion and decreased resistance to lateral push; 3, spontaneous rotation or contralateral rotation to the affected side; 4, consciousness reduced and unable or difficult to move; 5, no response to stimulation).

MCAO rats [3] = experiment: Infarct volume measurement by TTC staining; type: in vivo, Sprague-Dawley rats; details: oral once daily 14 days, compared with model group

SMILES	Histopathological changes in brain tissue (HE staining) (MCAO rats [1])	Neurological deficit score (MCAO rats [2])	Cerebral infarction volume ratio (TTC staining) (MCAO rats [3])
CC(/C=C/C=C(\C)C(=O)O[C@@H]1O[C@H](CO[C@@H]2O[C@H](CO)[C@@H](O)[C@H](O)[C@H]2O)[C@@H](O)[C@H](O)[C@H]1O)=C\C=C\C=C(C)\C=C\C=C(/C)C(=O)O[C@@H]1O[C@H](CO[C@@H]2O[C@H](CO)[C@@H](O)[C@H](O)[C@H]2O)[C@@H](O)[C@H](O)[C@H]1O [A1, crocin I]	protective effect on brain injury	significant effects	reduce the infarction volume significantly
C/C=C\c1cc(OC)c(OC)cc1OC [B1, β-asarone]	protective effect on brain injury	significant effects	reduce the infarction volume significantly
